# Reference: US11192880B2, “Quinolone compounds as inhibitors of the BCL6 BTB domain protein-protein interaction and/or as BCL6 degraders” (Ontario Institute for Cancer Research (OICR), priority 2017, dated 2021)
# How the values were obtained:
# [1] = Liver microsomal metabolic stability, mouse; type: in vitro ADME; settings: % remaining after 60 minutes, 1 μM compound, 0.5 mg/mL protein
# Experimental: (§1) (f) Microsomal Stability Assays
# (§2) Liver Microsomal Metabolic Stability
# (§3) Working stocks were initially diluted to a concentration of 40.0 μM in 0.1 M potassium phosphate buffer (pH 7.4) before addition to the reaction vials. CD-1 mouse (male) or pooled human liver microsomes (Corning Gentest) were utilized at a final concentration of 0.5 mg/mL (protein). Duplicate wells were used for each time point (0 and 60 minutes). Reactions were carried out at 37° C. in an orbital shaker at 175 rpm, and the final DMSO concentration was kept constant at 0.1%. The final volume for each reaction was 100 μL, which includes the addition of an NADPH-Regeneration Solution (NRS) mix. This NRS mix is comprised of glucose 6-phosphate dehydrogenase, NADP+, MgCl2, and glucose 6-phosphate. Upon completion of the 60 minute time point, reactions were terminated by the addition of 2-volumes (200 μL) of ice-cold, acetonitrile containing 0.5% formic acid and internal standard. Samples were then centrifuged at 4,000 rpm for 10 minutes to remove debris and precipitated protein. Approximately 150 μL of supernatant was subsequently transferred to a new 96 well microplate for LC/MS analysis:
# (§4) Narrow-window mass extraction LC-MS analysis was performed for all samples in this study using a Waters Xevo quadrupole time-of-flight (QTof) mass spectrometer to determine relative peak areas of test compounds. The percent remaining values are calculated using the following equations: % remaining=(A)/A0×100
# (§5) A is area response after incubation
# (§6) A0 is area response at initial time point
# BCL6 BTB domain = BCL6 BTB domain (Homo sapiens (Human), UniProt P41182); assay: Surface plasmon resonance (SPR) assay; type: binding; settings: single cycle kinetic analysis, Biacore T200
# Experimental: (b) Surface Plasmon Resonance (SPR) Assay
# SPR studies were performed using a Biacore™ T200 instrument (GE Health Sciences Inc.). The BCL6 BTB protein used in the FP assay was biotinylated using the site specific biotinylating enzyme BirA, and then cleaved with TEV protease to produce the BCL6 BTB domain (biotin-thrombin-BCL6 amino acids 1-129; 17 kd) that was use in SPR. This protein was stably captured (1000 RU) to streptavidin coupled SA chips (BR-1005-31, GE Health Sciences Inc.) according to the manufacture's protocol. Compounds were dissolved in 100% DMSO at 10 mM and 2-fold serial dilutions were done in 100% DMSO. For SPR analysis the serially titrated compounds were diluted 1/20 into buffer (10 mM HEPES pH7.4, 150 mM NaCl, 0.05% Tween-20, 3 mM EDTA) giving a final concentration of 5% DMSO. The Biacore flow rate was set at 100 ul/min. For KD determinations, single cycle kinetic analysis was performed with an on time of 60 seconds, and an off time of 300 seconds. Curve fitting and KD calculations were done with the Biacore T200 Evaluation software (GE Health Sciences Inc).
# [2] = molecular target: BTB domain of BCL6 / SMRT BBD peptide (Homo sapiens (Human), UniProt P41182); assay: BCL6-BTB-SMRT peptide inhibition fluorescence polarization (FP) screen; type: binding; settings: 1.25 uM BCL6-BTB, 20 nM Bodipy-TMR SMRT peptide probe; lower limit of assay 1 uM
# Experimental: (a) BCL6-BTB-SMRT Peptide Inhibition Fluorescence Polarization (FP) Screen
# Compounds were dissolved in 100% DMSO at 10 mM, assayed fresh, and then stored at −20° C. for repeat studies and future work. The reaction mixture consists of 1.25 uM of the 25 kd BCL6-BTB domain (Thioredoxin-His6-STag-TEV-biotinylation-thrombin-BCL6 amino acids 1-129) plus 20 nM of the peptide probe Ac-GSLVATVKEAGRSIHEIPA (SEQ ID NO:1) with 16 amino-acids (16-mer peptide) from the SMRT BBD (1414-1429) with a Bodipy-TMR fluorescent label on the lysine. […] 20 ul of this assay mixture was added to each well of the 384 well plates with the exception of the control wells that contained no protein (for setting the minimum FP value). Compounds were directly sprayed using an HP D300 Digital Dispenser from 10 mM DMSO stocks onto black 384 well plates (greiner bio-one #781900) in a concentration range from 1 uM to 500 uM (10 points in duplicate). The assay was equilibrated for 1 hour prior to reading the FP values (Ex 540 nm/Em 580 nm) with a Perkin Elmer Envision plate reader. The results were curve fitted and IC50 values were calculated using the BioAssay software from CambridgeSoft.
# [3] = Liver microsomal metabolic stability, human; type: in vitro ADME; settings: % remaining after 60 minutes, 1 μM compound, 0.5 mg/mL protein
# Experimental: as §1, §2, §3, §4, §5, §6
# [4] = system: BCL6 reporter construct in SuDHL4-3xBCL6-TK-Luc cells; assay: Cell-based BCL6 reporter luciferase assay; settings: 48 h, two days
# Experimental: (c) Cell-Based Luciferase Assay:
# A BCL6 reporter construct containing three copies of the consensus BCL6 binding site, the TK promoter, and the firefly luciferase gene was stably expressed in SuDHL4 cells after lentivirus infection and selection with Blasticidin. SuDHL4-3xBCL6-TK-Luc cells were seeded into a Viewplate 384-well assay dish at 15,000 cells/well in 25 ul medium (Alpha-MEM high glucose containing 10% FBS, 25 mM HEPES, […] GlutaMAX, 100 ug/ml Normocin, and […] Gentamycin, Invitrogen). A HP D300 digital dispenser was used to dose cells with DMSO or test compounds across a 10-point range of concentrations (high dose of 10 uM), and cultures were grown in a humidified 5% CO2 incubator at 37° C. After two days, plates were removed from incubator and equilibrated to room temperature. An equal volume of neolite reporter gene assay reagent was added to each well, and samples were processed according to manufacturer's instructions (Perkin Elmer). Luminescent signal was measured using an Envision™ plate reader equipped with a US-Luminescence detector.
# Karpas422 cells = assay: Tumor cell growth inhibition assay; type: cell-based; settings: Homo sapiens, KARPAS-422, 144 h, six days, ATPlite, read-out: GI Karpas EC50
# Experimental: (d) Tumor Cell Growth Inhibition Assay:
# Karpas422 cells were seeded into a 96-well plate at 2,000 cells/well in 150 ul medium (Alpha-MEM containing 10% FBS, […] Normocin, and […] Gentamycin, Invitrogen). A HP D300 digital dispenser was used to dose cells with DMSO or test compounds across a 10-point range of concentrations (high dose of 5 uM), and cultures were grown in a humidified 5% CO2 incubator at 37° C. After six days, plates were removed from incubator and equilibrated to room temperature. An equal volume of ATPlite assay reagent was added to each well, and samples were processed according to manufacturer's instructions (Perkin Elmer). Luminescent signal was measured using an Envision plate reader equipped with a US-Luminescence detector.
# [5] = reported; limits its use in animal studies; cited from earlier work
SMILES,"Mouse Liver Microsomes (MLM, % @ 1 h) [1]",Kd (BCL6 BTB domain),IC50 [2],"Human Liver Microsomes (HLM, % @ 1 h) [3]",IC50 [4],EC50 (Karpas422 cells),bioavailability [5]
"CNC(=O)COc1cc2cc(Nc3nc(N4C[C@H](C)C[C@H](C)C4)ncc3Cl)ccc2n(C)c1=O [BI-3802, reference compound]",13%,,,25%,,,poor bioavailability
CNC(=O)COc1cc2cc(Nc3nc(N4C[C@@H](C)C(F)(F)[C@@H](C)C4)ncc3Cl)ccc2n(C)c1=O [Ia],61%,5.33 nM,900 nM,77%,6.84 nM,3.36 nM,

# The remaining molecules from weak to strong by Kd (BCL6 BTB domain), led by results:
"Mouse Liver Microsomes (MLM, % @ 1 h) [1]",Kd (BCL6 BTB domain),IC50 [2],"Human Liver Microsomes (HLM, % @ 1 h) [3]",IC50 [4],EC50 (Karpas422 cells),SMILES,bioavailability [5]
0.5%,15.7 nM,1800 nM,44%,643 nM,37.8 nM,CNC(=O)COc1cc2cc(Nc3nc(N4CC5CCC(C4)C5(F)F)ncc3Cl)ccc2n(C)c1=O [Compound X-3],
70%,10.3 nM,1200 nM,74%,91.9 nM,30.6 nM,CNC(=O)COc1cc2cc(Nc3nc(N4C[C@@H](C)O[C@@H](C)C4)ncc3Cl)ccc2n(C)c1=O [Compound X-2],
15%,5.73 nM,1600 nM,34%,433 nM,92.6 nM,"CNC(=O)COc1cc2cc(Nc3nc(N4C[C@@H](C)N[C@@H](C)C4)ncc3Cl)ccc2n(C)c1=O [Compound X-1, 2-((6-((5-chloro-2-((3S,5R)-3,5-dimethylpiperazin-1-yl)pyrimidin-4-yl)amino)-1-methyl-2-oxo-1,2-dihydroquinolin-3-yl)oxy)-N-methylacetamide]",
